Data: patent US9850216B2 (H. LEE MOFFITT CANCER CENTER AND RESEARCH INSTITUTE, INC., priority 2013, dated 2017)
Several values for one entry are separate records, joined by “and”; a condition that tells them apart may be missing. Equal entries are not always repeated.

Assays:
ACK1 = ACK1 (Homo sapiens, UniProt Q07912); assay: ACK1 ELISA: phosphorylation of AKT-derived peptide; format: biochemical; conditions: 10 μM, Table 1, replicate values listed; for inhibition at 10 µM: read-out: % Inhibition at 10 μM (ELISA)
ACK1, sequence (Q07912 whole entry): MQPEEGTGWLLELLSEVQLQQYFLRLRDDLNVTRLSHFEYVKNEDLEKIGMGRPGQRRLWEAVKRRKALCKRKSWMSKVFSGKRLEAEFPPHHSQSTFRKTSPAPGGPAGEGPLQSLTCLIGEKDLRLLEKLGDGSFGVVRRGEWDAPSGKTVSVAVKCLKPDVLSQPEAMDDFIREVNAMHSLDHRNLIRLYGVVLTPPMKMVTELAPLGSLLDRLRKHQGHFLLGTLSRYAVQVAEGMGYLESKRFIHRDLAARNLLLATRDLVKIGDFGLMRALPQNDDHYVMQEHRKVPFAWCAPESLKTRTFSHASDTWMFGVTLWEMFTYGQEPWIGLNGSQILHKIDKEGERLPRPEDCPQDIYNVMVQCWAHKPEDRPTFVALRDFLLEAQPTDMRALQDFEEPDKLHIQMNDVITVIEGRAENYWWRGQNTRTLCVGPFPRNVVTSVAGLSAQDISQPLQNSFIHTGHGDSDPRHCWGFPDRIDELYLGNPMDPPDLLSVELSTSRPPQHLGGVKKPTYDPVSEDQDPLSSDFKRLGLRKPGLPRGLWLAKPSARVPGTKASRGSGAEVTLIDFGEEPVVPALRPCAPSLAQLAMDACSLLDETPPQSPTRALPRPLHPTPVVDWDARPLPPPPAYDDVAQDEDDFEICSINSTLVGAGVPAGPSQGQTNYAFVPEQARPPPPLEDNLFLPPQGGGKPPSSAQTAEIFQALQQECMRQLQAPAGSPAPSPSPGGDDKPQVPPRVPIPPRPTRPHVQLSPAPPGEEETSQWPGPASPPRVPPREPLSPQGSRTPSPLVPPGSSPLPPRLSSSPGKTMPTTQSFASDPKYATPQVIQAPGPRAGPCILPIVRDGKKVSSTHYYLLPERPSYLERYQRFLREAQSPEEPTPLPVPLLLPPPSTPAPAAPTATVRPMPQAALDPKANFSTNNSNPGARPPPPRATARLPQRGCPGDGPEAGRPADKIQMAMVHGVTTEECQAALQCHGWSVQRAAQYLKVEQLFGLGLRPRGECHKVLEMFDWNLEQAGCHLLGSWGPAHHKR

melting point	% Inhibition at 10 μM (ELISA) (ACK1)	inhibition at 10 µM (ACK1) [%]	% Inhibition at 10 μM (ELISA) (ACK1; hydrochloride)	Structure (SMILES)
86 °C (dec.)	48%	61		CN1CCN(c2ccc(Nc3ncc(F)c(NCC4CCCO4)n3)cc2)CC1 (centres unmarked) [DZ1-098, 5-fluoro-N2-(4-(4-methylpiperazin-1-yl)phenyl)-N4-((tetrahydrofuran-2-yl)methyl)pyrimidine-2,4-diamine]
60.1 °C (dec.)	14%	19		CN1CCN(c2ccc(Nc3nc(NCC4CCCO4)c4ccccc4n3)cc2)CC1 (centres unmarked) [DZ1-106, N2-(4-(4-methylpiperazin-1-yl)phenyl)-N4-((tetrahydrofuran-2-yl)methyl)quinazoline-2,4-diamine]
	76% and 61% and 37% and 27%			COc1ccc(Nc2ncc(C(=O)Nc3c(F)cccc3Cl)c(NCC3CCCO3)n2)cc1 (centres unmarked) [YL7-104-1, N-(2-chloro-6-fluorophenyl)-2-(4-methoxyphenylamino)-4-((tetrahydrofuran-2-yl)methylamino)pyrimidine-5-carboxamide]
		65	68% and 67%	Cl.O=C(Nc1c(F)cccc1Cl)c1cnc(Nc2ccc(O)c(F)c2)nc1NCC1CCCO1 (centres unmarked) [YL7-170-2, N-(2-chloro-6-fluorophenyl)-2-(3-fluoro-4-hydroxyphenylamino)-4-((tetrahydrofuran-2-yl)methylamino)pyrimidine-5-carboxamide hydrochloride]
	90%	94		O=C(O)CCC(=O)N1CCN(c2ccc(Nc3ncc(Br)c(NCC4CCCO4)n3)cc2)CC1 (centres unmarked) [YL9-168, 4-(4-(4-(5-Bromo-4-((tetrahydrofuran-2-yl)methylamino)pyrimidin-2-ylamino)phenyl)piperazin-1-yl)-4-oxobutanoic acid]

Continued, compound first:

Structure (SMILES)	melting point	% Inhibition at 10 μM (ELISA) (ACK1)	inhibition at 10 µM (ACK1) [%]	% Inhibition at 10 μM (ELISA) (ACK1; hydrochloride)
Cc1cnc(Nc2ccc(N3CCN(C)CC3)cc2)nc1NCC1CCCO1 (centres unmarked) [DZ1-100, 5-methyl-N2-(4-(4-methylpiperazin-1-yl)phenyl)-N4-((tetrahydrofuran-2-yl)methyl)pyrimidine-2,4-diamine]	151.7 °C (dec.)	85% and 54% and 5% and 10%		
CCc1cnc(Nc2ccc(N3CCN(C)CC3)cc2)nc1NCC1CCCO1 (centres unmarked) [DZ1-108, 5-ethyl-N2-(4-(4-methylpiperazin-1-yl)phenyl)-N4-((tetrahydrofuran-2-yl)methyl)pyrimidine-2,4-diamine]	209.5 °C (dec.)	72% and 48% and 34% and 46%		
Cc1cnc(Nc2ccc(O)cc2)nc1NCC1CCCO1 (centres unmarked) [DZ1-116, 4-(5-methyl-4-((tetrahydrofuran-2-yl)methylamino)pyrimidin-2-ylamino)phenol]	145.4 °C (dec.)	15% and 5%		
CCNC(=O)C1CCN(c2ccc(Nc3ncc(Cl)c(NC[C@@H]4CCCO4)n3)cc2)CC1 [SG1-083]		61%	73	
COc1ccc(Nc2ncc(Br)c(NCC3CCCO3)n2)cc1.Cl (centres unmarked) [SK1-022, 5-Bromo-N2-(4-methoxyphenyl)-N4-((tetrahydrofuran-2-yl)methyl)pyrimidine-2,4-diamine]		67%	68	
Cl.Oc1ccc(Nc2ncc(F)c(NCC3CCCO3)n2)cc1F (centres unmarked) [YL7-164, 2-Fluoro-4-(5-fluoro-4-((tetrahydrofuran-2-yl)methylamino)pyrimidin-2-ylamino)phenol hydrochloride]			37	46% and 55%
Cc1cnc(Nc2ccc(O)c(F)c2)nc1NCC1CCCO1.Cl (centres unmarked) [YL7-170-1, 2-Fluoro-4-(5-methyl-4-((tetrahydrofuran-2-yl)methylamino)pyrimidin-2-ylamino)phenol hydrochloride]				51% and 29% and 47%
O=C(O)C1CCN(c2ccc(Nc3ncc(Cl)c(NCC4CCCO4)n3)cc2)CC1 (centres unmarked) [YL8-050, 1-(4-(5-Chloro-4-((tetrahydrofuran-2-yl)methylamino)pyrimidin-2-ylamino)phenyl)piperidine-4-carboxylic acid]		96%	87	
